Results: US8269043B2, “Bicyclic aryl sphingosine 1-phosphate analogs” (Biogen Idec MA Inc., priority 2008, dated 2012)

How the values were obtained:
human S1P3 receptor [1] = biological target: T1, human S1P3 receptor (Homo sapiens, UniProt Q99500); assay: Calcium mobilization assay, agonist activity at human S1P3; assay type: cell-based; details: recombinant CHEM cells expressing human S1P3, FLIPR Calcium 4 dye (FIG. 9, FIG. 11)
T1 construct: host or cells: recombinant CHEM cells
Protocol: (§1) Compounds that were not specific for the S1P, receptor, can have activity for other S1P receptor subtypes, e.g., S1P2, S1P3, S1P4, or S1P5, and can cause undesirable side effects. Accordingly, compounds were tested to identify those that were specific for S1P1 activity and had little or no activity, or are antagonists of, S1P3 activity. Accordingly, the test compounds were tested in a calcium mobilization assay to determine agonist activity at either the human S1P1 or human S1P3 receptor, and antagonist activity only at the human S1P3 receptor. The procedure was essentially as described (with modifications described below) in Davis et al. (2005) Journal of Biological Chemistry, vol. 280, pp. 9833-9841, which is incorporated by reference in its entirety. Calcium mobilization assays were performed in recombinant CHEM cells expressing human S1P1 or S1P3 purchased from Millipore (Billerica, Mass.). To detect free intracellular calcium, S1P1 or S1P3 cells were loaded with FLIPR Calcium 4 dye from Molecular Devices (Sunnyvale, Calif.). Cells were imagined for calcium mobilization using a FLIPR^TETRA equipped with a 96-well dispense head.

[2] = tested on: sphingosine kinase 2 (SK2); assay: Sphingosine kinase 2 (SK2) substrate assay with lysate of transfected HEK293E cells, HPLC detection; assay type: biochemical, canine, mouse, or human; details: 20 μM test compound, 37° C., 70 minutes, HPLC with and without added SPHK2 (FIG. 7)
Protocol: To assay a test compound for its properties as a substrate of sphingosine kinase 2 (SK2), an assay using recombinantly expressed SK2 was used. Briefly, HEK293E cells were transiently transfected with plasmids containing DNA encoding a sphingosine kinase 2 (SK2) (canine, mouse, or human). […]
The SK2 kinase assay was performed in a 200 μL reaction mixture containing 20 μm sphingosine (control) or 20 μM test compound (prepared as a 200 μM stock solution containing 0.1% fatty acid-free bovine serum albumin (BSA)), 38 μL lysate, and 2 μM ATP (freshly prepared). Kinase reactions were incubated at 37° C. for 70 minutes followed by detection of phosphorylated compound (control or test compound) using UV absorbance at 282 nm. […] The supernatant was analyzed on HPLC using a C18 column (FIG. 7). The parent and phosphorylated test compound were quantitated using area under the curve (AUC) calculation. […]

human S1P3 receptor [3] = biological target: T1, human S1P3 receptor; assay: Calcium mobilization assay, antagonist activity at human S1P3; assay type: cell-based; details: recombinant CHEM cells expressing human S1P3, FLIPR Calcium 4 dye (FIG. 10, FIG. 11)
Protocol: as §1

human S1P1 = biological target: T2, human S1P1 (Homo sapiens, UniProt P21453); assay: Calcium mobilization assay, agonist activity at human S1P1; assay type: cell-based; details: recombinant CHEM cells expressing human S1P1, FLIPR Calcium 4 dye (FIG. 8, FIG. 11)
T2 construct: host or cells: recombinant CHEM cells
T2 sequence (P21453 whole entry): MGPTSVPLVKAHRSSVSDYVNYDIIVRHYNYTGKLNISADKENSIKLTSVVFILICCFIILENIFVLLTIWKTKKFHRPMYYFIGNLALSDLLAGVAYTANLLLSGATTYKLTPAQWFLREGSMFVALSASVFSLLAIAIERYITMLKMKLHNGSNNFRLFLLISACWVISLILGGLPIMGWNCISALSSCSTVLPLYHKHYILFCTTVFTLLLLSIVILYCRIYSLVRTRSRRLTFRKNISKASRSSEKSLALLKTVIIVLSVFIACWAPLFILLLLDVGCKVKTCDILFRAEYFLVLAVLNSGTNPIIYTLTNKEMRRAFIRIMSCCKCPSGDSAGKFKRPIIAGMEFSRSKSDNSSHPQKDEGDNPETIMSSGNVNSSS
Protocol: as §1

T1 sequence (Q99500 whole entry): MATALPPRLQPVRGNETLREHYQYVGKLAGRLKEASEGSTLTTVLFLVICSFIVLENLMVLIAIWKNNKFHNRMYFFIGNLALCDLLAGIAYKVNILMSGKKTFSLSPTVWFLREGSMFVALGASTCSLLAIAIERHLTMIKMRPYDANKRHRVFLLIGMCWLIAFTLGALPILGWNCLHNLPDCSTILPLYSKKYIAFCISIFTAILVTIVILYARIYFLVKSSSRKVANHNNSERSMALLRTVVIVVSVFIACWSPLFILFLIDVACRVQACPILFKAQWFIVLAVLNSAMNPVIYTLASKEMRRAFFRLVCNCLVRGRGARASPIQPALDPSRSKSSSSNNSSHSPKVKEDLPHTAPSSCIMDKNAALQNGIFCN

- S1P3 antagonist activity (human S1P3 receptor [3]): do not antagonize the S1P3 receptor
SMILES: CCCC[C@H]1CC[C@@H](Oc2ccc3cc([C@@](C)(N)COP(=O)(O)O)ccc3c2C(F)(F)F)CC1 (relative stereo) [Example 21, (R)-2-amino-2-(6-(cis-4-butylcyclohexyloxy)-5-(trifluoromethyl)naphthalen-2-yl)propan-1-phosphoric acid]
- S1P3 agonist activity (human S1P3 receptor [1]): weak micromolar partial S1P3 agonist activity
- phosphorylation of test compound by SPHK2 [2]: the compound is phosphorylated under these conditions
- S1P1 agonist activity (human S1P1): agonists of the S1P, receptor, with potencies similar to S1P
